Measured values as given in ChEMBL document CHEMBL3885861, “Open TG-GATES”.

Species on record: Rattus norvegicus
Assay: Open TG-GATES - Regimen: Single
Type: toxicity, organism-based, Sprague-Dawley
Parameters: regimen Single, gender Male, age 6 weeks
Conditions: in vivo, po, 30 mg/kg, route gavage, dose level Low; for APTT / Bas / Eos / Fbg / Hb / Ht / Lym / MCH / MCHC / MCV / Mono / Neu / PT / Plat / RBC / Ret / WBC: tissue Blood; for KIDNEY_L / KIDNEY_R / KIDNEY_TOTAL: tissue Kidney; for LIVER: tissue Liver; for A/G / ALP / ALT / AST / BUN / CRE / Ca / Cl / DBIL / GLC / IP / K / LDH / Na / PL / RALB / TBIL / TC / TG / TP / gamma-GTP: tissue Plasma

SMILES: CCc1oc2ccccc2c1C(=O)c1cc(I)c(O)c(I)c1 [BENZIODARONE]
- TERMINAL_BW (3 h): 212.2 g
- APTT (3 h): 16.6 s
- Bas (3 h): 0%
- Eos (3 h): 1%
- Fbg (3 h): 202.4 mg/dL
- Hb (3 h): 14 g/dL
- Ht (3 h): 41.5%
- Lym (3 h): 74.4%
- MCH (3 h): 21.7 pg
- MCHC (3 h): 33.8%
- MCV (3 h): 64.3 fL
- Mono (3 h): 10%
- Neu (3 h): 14.8%
- PT (3 h): 12 s
- Plat (3 h): 117.6 x10_4/uL
- RBC (3 h): 645.8 x10_4/ul
- Ret (3 h): 8.1%
- WBC (3 h): 97.8 x10_2/uL
- KIDNEY_L (3 h): 1 g
- KIDNEY_R (3 h): 1 g
- KIDNEY_TOTAL (3 h): 2 g
- LIVER (3 h): 10 g
- A/G (3 h): 2.1
- ALP (3 h): 939.2 IU/L
- ALT (3 h): 33.8 IU/L
- AST (3 h): 66.6 IU/L
- BUN (3 h): 11 mg/dL
- CRE (3 h): 0.5 mg/dL
- Ca (3 h): 10.6 mg/dL
- Cl (3 h): 103.4 meq/L
- DBIL (3 h): 0 mg/dL
- GLC (3 h): 192.8 mg/dL
- IP (3 h): 9.7 mg/dL
- K (3 h): 4.4 meq/L
- LDH (3 h): 109.6 IU/L
- Na (3 h): 141 meq/L
- PL (3 h): 131.2 mg/dL
- RALB (3 h): 3.7 g/dL
- TBIL (3 h): 0.4 mg/dL
- TC (3 h): 73 mg/dL
- TG (3 h): 56.8 mg/dL
- TP (3 h): 5.4 g/dL
- gamma-GTP (3 h): 2 IU/L
- TERMINAL_BW (6 h): 213.4 g
- APTT (6 h): 16.4 s
- Bas (6 h): 0%
- Eos (6 h): 1%
- Fbg (6 h): 218.2 mg/dL
- Hb (6 h): 13.7 g/dL
- Ht (6 h): 41%
- Lym (6 h): 82%
- MCH (6 h): 21.9 pg
- MCHC (6 h): 33.4%
- MCV (6 h): 65.6 fL
- Mono (6 h): 7.8%
- Neu (6 h): 9.8%
- PT (6 h): 12 s
- Plat (6 h): 108.5 x10_4/uL
- RBC (6 h): 625.4 x10_4/ul
- Ret (6 h): 10.8%
- WBC (6 h): 102.6 x10_2/uL
- KIDNEY_L (6 h): 1 g
- KIDNEY_R (6 h): 1 g
- KIDNEY_TOTAL (6 h): 1.9 g
- LIVER (6 h): 9.8 g
- A/G (6 h): 2.2
- ALP (6 h): 728.8 IU/L
- ALT (6 h): 31 IU/L
- AST (6 h): 65.6 IU/L
- BUN (6 h): 11.8 mg/dL
- CRE (6 h): 0.5 mg/dL
- Ca (6 h): 10.7 mg/dL
- Cl (6 h): 105 meq/L
- DBIL (6 h): 0.03 mg/dL
- GLC (6 h): 183.4 mg/dL
- IP (6 h): 9.8 mg/dL
- K (6 h): 4.6 meq/L
- LDH (6 h): 105.2 IU/L
- Na (6 h): 141.6 meq/L
- PL (6 h): 130.6 mg/dL
- RALB (6 h): 3.7 g/dL
- TBIL (6 h): 0.3 mg/dL
- TC (6 h): 76.6 mg/dL
- TG (6 h): 55.2 mg/dL
- TP (6 h): 5.4 g/dL
- gamma-GTP (6 h): 1.8 IU/L
- TERMINAL_BW (9 h): 210.3 g
- APTT (9 h): 17.9 s
- Bas (9 h): 0%
- Eos (9 h): 1%
- Fbg (9 h): 203.2 mg/dL
- Hb (9 h): 13.5 g/dL
- Ht (9 h): 40.3%
- Lym (9 h): 76.8%
- MCH (9 h): 21.7 pg
- MCHC (9 h): 33.6%
- MCV (9 h): 64.5 fL
- Mono (9 h): 8%
- Neu (9 h): 14.6%
- PT (9 h): 12 s
- Plat (9 h): 110.8 x10_4/uL
- RBC (9 h): 624.8 x10_4/ul
- Ret (9 h): 8.2%
- WBC (9 h): 78 x10_2/uL
- KIDNEY_L (9 h): 0.9 g
- KIDNEY_R (9 h): 1 g
- KIDNEY_TOTAL (9 h): 1.9 g
- LIVER (9 h): 9 g
- A/G (9 h): 2.2
- ALP (9 h): 748.4 IU/L
- ALT (9 h): 28.8 IU/L
- AST (9 h): 58.6 IU/L
- BUN (9 h): 11.4 mg/dL
- CRE (9 h): 0.4 mg/dL
- Ca (9 h): 10.4 mg/dL
- Cl (9 h): 105.4 meq/L
- DBIL (9 h): 0.086 mg/dL
- GLC (9 h): 198 mg/dL
- IP (9 h): 10.4 mg/dL
- K (9 h): 4.5 meq/L
- LDH (9 h): 88.4 IU/L
- Na (9 h): 142.8 meq/L
- PL (9 h): 129.2 mg/dL
- RALB (9 h): 3.7 g/dL
- TBIL (9 h): 0.3 mg/dL
- TC (9 h): 67.6 mg/dL
- TG (9 h): 48.6 mg/dL
- TP (9 h): 5.5 g/dL
- gamma-GTP (9 h): 0.8 IU/L
- TERMINAL_BW (24 h): 226.7 g
- APTT (24 h): 17.3 s
- Bas (24 h): 0%
- Eos (24 h): 1%
- Fbg (24 h): 206.6 mg/dL
- Hb (24 h): 13.4 g/dL
- Ht (24 h): 39.2%
- Lym (24 h): 76.4%
- MCH (24 h): 22.1 pg
- MCHC (24 h): 34.2%
- MCV (24 h): 64.8 fL
- Mono (24 h): 7.4%
- Neu (24 h): 15%
- PT (24 h): 11.9 s
- Plat (24 h): 117.8 x10_4/uL
- RBC (24 h): 605 x10_4/ul
- Ret (24 h): 8.1%
- WBC (24 h): 94 x10_2/uL
- KIDNEY_L (24 h): 1 g
- KIDNEY_R (24 h): 1 g
- KIDNEY_TOTAL (24 h): 2 g
- LIVER (24 h): 11.1 g
- A/G (24 h): 2.1
- ALP (24 h): 882.8 IU/L
- ALT (24 h): 34.6 IU/L
- AST (24 h): 70.8 IU/L
- BUN (24 h): 17.4 mg/dL
- CRE (24 h): 0.6 mg/dL
- Ca (24 h): 10.6 mg/dL
- Cl (24 h): 104.6 meq/L
- DBIL (24 h): 0.006 mg/dL
- GLC (24 h): 197.2 mg/dL
- IP (24 h): 7.4 mg/dL
- K (24 h): 4.7 meq/L
- LDH (24 h): 95.8 IU/L
- Na (24 h): 141 meq/L
- PL (24 h): 138.2 mg/dL
- RALB (24 h): 3.8 g/dL
- TBIL (24 h): 0.3 mg/dL
- TC (24 h): 73.2 mg/dL
- TG (24 h): 81.6 mg/dL
- TP (24 h): 5.6 g/dL
- gamma-GTP (24 h): 1 IU/L
